Data from PMC10714828, “Proteomic analysis of anti-MRSA activity of caerin 1.1/1.9 in a murine skin infection model and their in vitro anti-biofilm effects against Acinetobacter baumannii” (Microbiology Spectrum, 2023).
Like-named read-outs stand apart in the source and are kept apart here.

Key:
[1] = system: E. coli (GDM1.176); test: MIC by micro-broth dilution (CLSI); format: cell-based, Escherichia coli; details: for inhibition of E. coli growth (in words): MIC test, Fig. 1E
Description: (§1) The MIC of F3 against different bacteria were measured by using a micro-broth dilution method developed by the Clinical and Laboratory Standards Institute ([33]). Briefly, the bacterial suspension with absorbance ranging from 0.08 to 0.10 was prepared and 100 µL of the bacterial suspension to a 96 U-shaped well culture plate. The dalbavancin HCl and sodium fusidate were prepared into 328 µM, polymyxin B was prepared at 840.7 µM with phosphate-buffered saline (PBS). Concentrations of F1 and F3 and of F-K were diluted to […] and 479.8 μM, and they were added into 96-well plates with concentration gradients of 310.5, 155.2, 77.6, 38.8, 19.4, 9.7, and 4.9 µM, respectively, with three replicates for each concentration, the equivalent volume of PBS was added as a growth control. The bacteria were cultured at 37°C for 24 h. The optical density (OD) value at 600 nm was measured with a MULTISKAN GO microplate spectrophotometer.

[2] = system: P. aeruginosa (GDM1.443); test: MIC by micro-broth dilution (CLSI); format: cell-based,  Pseudomonas aeruginosa; details: Fig. 1F; for inhibition of P. aeruginosa growth (in words): MIC test
Description: as §1

[3] = system: A. baumannii (GDM1.609); test: MIC by micro-broth dilution (CLSI); format: cell-based, Acinetobacter baumannii; details: Fig. 1D; for inhibitory activity on A. baumannii (in words): MIC test; for MIC: micro-broth dilution, 37°C, 24 h, OD 600 nm, three replicates
Description: as §1

[4] = pH 5.5; cited from earlier work
[5] = system: bacteria; details: after repeatedly in vitro culture; cited from earlier work
Excerpt: Moreover, caerin 1.1 has an additive antibacterial effect when used together with caerin 1.9. Caerin 1.1 and caerin 1.9 prepared in the form of a temperature-sensitive gel inhibit MRSA growth in a skin bacterial infecti ...

In the case of CN[C@H]1C(=O)N[C@@H]2Cc3ccc(cc3)Oc3cc4cc(c3O[C@@H]3O[C@H](C(=O)O)[C@@H](O)[C@H](O)[C@H]3NC(=O)CCCCCCCCC(C)C)Oc3ccc(cc3Cl)[C@@H](O)[C@@H]3NC(=O)[C@H](NC(=O)[C@@H]4NC(=O)[C@@H](NC2=O)c2cc(cc(O)c2Cl)Oc2cc1ccc2O)c1ccc(O)c(c1)-c1c(O[C@H]2O[C@H](CO)[C@@H](O)[C@H](O)[C@@H]2O)cc(O)cc1[C@@H](C(=O)NCCCN(C)C)NC3=O [Dalbavancin, dalbavancin], the “inhibition of E. coli growth (in words)” value [1] is reported as “incapable of stopping these bacterial growth”, the “inhibition of P. aeruginosa growth (in words)” value [2] is reported as “incapable of stopping these bacterial growth” and the “inhibitory activity on A. baumannii (in words)” value (shortened to “inhibitory activity”) [3] is reported as “no inhibitory activity”.

In the case of “PLLLLLPSLLTATL-NH2 [F-K, positive control antimicrobial peptide]”, the “inhibition of E. coli growth (in words)” value [1] is reported as “the best at inhibiting these two strains of bacteria”, the “inhibition of P. aeruginosa growth (in words)” value [2] is reported as “the best at inhibiting these two strains of bacteria” and the “inhibitory activity” value [3] is reported as “comparable inhibition”.

In the case of “GLFGVLGSIAKHVLPHVVPVIAEKL-NH2 [F3, host defense peptide caerin 1.9, originally isolated from the Australian tree frog, synthesized]”, the “stability at pH and temperature” value [4] is listed as “stable at low pH (5.5–7.4) and room temperature”, the “induction of bacterial resistance” value [5] is listed as “did not induce bacterial resistance” and the “inhibition of E. coli growth (in words)” value [1] is listed as “suppression of the growth of E. coli and P. aeruginosa at high concentrations”. The “inhibition of P. aeruginosa growth (in words)” value [2] was “suppression of the growth of E. coli and P. aeruginosa at high concentrations”, the “inhibitory activity” value [3] was “comparable inhibition” and the MIC [3] was “around 5 μM”.

In the case of CC(=O)O[C@H]1C[C@@]2(C)[C@@H](C[C@@H](O)[C@H]3[C@@]4(C)CC[C@@H](O)[C@@H](C)[C@@H]4CC[C@@]32C)/C1=C(\CCC=C(C)C)C(=O)O [Sodium Fusidate, Sodium fusidate], the MIC ([1]; Escherichia coli, 24 h) is reported as 78.7 µM, the “inhibition of E. coli growth (in words)” value [1] is reported as “incapable of stopping these bacterial growth” and the “inhibition of P. aeruginosa growth (in words)” value [2] is reported as “incapable of stopping these bacterial growth”. For the same compound, the MIC ([2]; Pseudomonas aeruginosa, micro-broth dilution, 37°C, 24 h, OD 600 nm, three replicates) was 78.7 µM, the MIC ([3]; Acinetobacter baumannii, read-out: MIC) was 19.7 µM and the “inhibitory activity” value [3] was “no inhibitory activity”.

For “GLLSVLGSVAKHVLPHVVPVIAEHL-NH2 [F1, host defense peptide caerin 1.1, originally isolated from the Australian tree frog, synthesized]”, the “stability at pH and temperature” value [4] is given as “stable at low pH (5.5–7.4) and room temperature”, the “inhibition of E. coli growth (in words)” value [1] is given as “suppression of the growth of E. coli and P. aeruginosa at high concentrations” and the “inhibition of P. aeruginosa growth (in words)” value [2] is given as “suppression of the growth of E. coli and P. aeruginosa at high concentrations”. The “inhibitory activity” value [3] was “comparable inhibition” and the MIC [3] was “around 5 μM”.
